# Source: ChEMBL document CHEMBL4311999, “3-Hydrazinoisatin-based benzenesulfonamides as novel carbonic anhydrase inhibitors endowed with anticancer activity: Synthesis, in vitro biological evaluation and in silico insights” (Eur J Med Chem, 2019)
# Experiments:
# [1] = tested on: RPMI-8226; assay: Growth inhibition of human RPMI8226 cells at 10 uM incubated for 48 hrs by sulforhodamine B assay relative to control; format: functional; details: RPMI-8226, 48 h, read-out: GI
# [2] = tested on: NCI-H522; assay: Growth inhibition of human NCI-H522 cells at 10 uM incubated for 48 hrs by sulforhodamine B assay relative to control; format: functional; details: NCI-H522, 48 h, read-out: GI
# [3] = tested on: SF-268; assay: Growth inhibition of human SF268 cells at 10 uM incubated for 48 hrs by sulforhodamine B assay relative to control; format: functional; details: SF-268, 48 h, read-out: GI
# [4] = tested on: SF-539; assay: Growth inhibition of human SF539 cells at 10 uM incubated for 48 hrs by sulforhodamine B assay relative to control; format: functional; details: SF-539, 48 h, read-out: GI
# [5] = tested on: SNB-19; assay: Growth inhibition of human SNB19 cells at 10 uM incubated for 48 hrs by sulforhodamine B assay relative to control; format: functional; details: SNB-19, 48 h, read-out: GI
# [6] = tested on: MDA-MB-435; assay: Growth inhibition of human MDA-MB-435 cells at 10 uM incubated for 48 hrs by sulforhodamine B assay relative to control; format: functional; details: MDA-MB-435, 48 h, read-out: GI
# [7] = tested on: DU-145; assay: Growth inhibition of human DU145 cells at 10 uM incubated for 48 hrs by sulforhodamine B assay relative to control; format: functional; details: DU-145, 48 h, read-out: GI
# [8] = tested on: CAKI-1; assay: Growth inhibition of human Caki1 cells at 10 uM incubated for 48 hrs by sulforhodamine B assay relative to control; format: functional; details: CAKI-1, 48 h, read-out: GI
# [9] = tested on: 786-0; assay: Growth inhibition of human 786-0 cells at 10 uM incubated for 48 hrs by sulforhodamine B assay relative to control; format: functional; details: 786-0, 48 h, read-out: GI
# [10] = tested on: A498; assay: Growth inhibition of human A498 cells at 10 uM incubated for 48 hrs by sulforhodamine B assay relative to control; format: functional; details: A498, 48 h, read-out: GI
# [11] = tested on: NCI/ADR-RES; assay: Growth inhibition of human NCI/ADR-RES cells at 10 uM incubated for 48 hrs by sulforhodamine B assay relative to control; format: functional; details: read-out: GI
# [12] = tested on: UACC-62; assay: Growth inhibition of human UACC62 cells at 10 uM incubated for 48 hrs by sulforhodamine B assay relative to control; format: functional; details: UACC-62, 48 h, read-out: GI
# [13] = tested on: BT-549; assay: Growth inhibition of human BT549 cells at 10 uM incubated for 48 hrs by sulforhodamine B assay relative to control; format: functional; details: BT-549, 48 h, read-out: GI
# [14] = tested on: MDA-MB-468; assay: Growth inhibition of human MDA-MB-468 cells at 10 uM incubated for 48 hrs by sulforhodamine B assay relative to control; format: functional; details: MDA-MB-468, 48 h, read-out: GI
# [15] = molecular target: Cyclin-dependent kinase 2/cyclin E1 (Homo sapiens, UniProt P24941); assay: Inhibition of human recombinant CDK2/Cyclin E expressed in baculovirus infected Sf9 cells using histone H1 substrate in presence of [gamma33P]ATP
# [16] = tested on: HCT-116; assay: Inhibition of clonogenicity in human HCT116 cells assessed as reduction in colony formation treated for 10 days by crystal violet staining; format: functional, cell-based
# [17] = tested on: CCRF-CEM; assay: Growth inhibition of human CCRF-CEM cells at 10 uM incubated for 48 hrs by sulforhodamine B assay relative to control; format: functional; details: read-out: GI
# [18] = tested on: EKVX; assay: Growth inhibition of human EKVX cells at 10 uM incubated for 48 hrs by sulforhodamine B assay relative to control; format: functional; details: read-out: GI
# [19] = tested on: NCI-H23; assay: Growth inhibition of human NCI-H23 cells at 10 uM incubated for 48 hrs by sulforhodamine B assay relative to control; format: functional; details: NCI-H23, 48 h, read-out: GI
# [20] = tested on: COLO 205; assay: Growth inhibition of human COLO205 cells at 10 uM incubated for 48 hrs by sulforhodamine B assay relative to control; format: functional; details: COLO 205, 48 h, read-out: GI
# [21] = tested on: HT-29; assay: Growth inhibition of human HT-29 cells at 10 uM incubated for 48 hrs by sulforhodamine B assay relative to control; format: functional; details: HT-29, 48 h, read-out: GI
# [22] = tested on: KM12; assay: Growth inhibition of human KM12 cells at 10 uM incubated for 48 hrs by sulforhodamine B assay relative to control; format: functional; details: KM12, 48 h, read-out: GI
# [23] = tested on: LOX IMVI; assay: Growth inhibition of human LOXIMVI cells at 10 uM incubated for 48 hrs by sulforhodamine B assay relative to control; format: functional; details: read-out: GI
# [24] = tested on: SK-MEL-2; assay: Growth inhibition of human SK-MEL-2 cells at 10 uM incubated for 48 hrs by sulforhodamine B assay relative to control; format: functional; details: SK-MEL-2, 48 h, read-out: GI
# [25] = tested on: TK-10; assay: Growth inhibition of human TK10 cells at 10 uM incubated for 48 hrs by sulforhodamine B assay relative to control; format: functional; details: TK-10, 48 h, read-out: GI
# [26] = tested on: SK-MEL-28; assay: Growth inhibition of human SK-MEL-28 cells at 10 uM incubated for 48 hrs by sulforhodamine B assay relative to control; format: functional; details: SK-MEL-28, 48 h, read-out: GI
compound,measurement,setting,value
NS(=O)(=O)c1ccc(N/N=C2\C(=O)N(Cc3ccccc3)c3ccc(Cl)cc32)cc1,inhibition of growth at 10 µM,[1],10%
same,inhibition of growth at 10 µM,[2],31%
same,inhibition of growth at 10 µM,[3],35%
same,inhibition of growth at 10 µM,[4],39%
same,inhibition of growth at 10 µM,[5],59%
same,inhibition of growth at 10 µM,[6],21%
same,inhibition of growth at 10 µM,[7],13%
same,inhibition of growth at 10 µM,[8],36%
same,inhibition of growth at 10 µM,[9],52%
same,inhibition of growth at 10 µM,[10],22%
same,inhibition of growth at 10 µM,[11],18%
same,inhibition of growth at 10 µM,[12],34%
same,inhibition of growth at 10 µM,[13],19%
same,inhibition of growth at 10 µM,[14],17%
same,IC50,[15],> 10 µM
CCOC(=O)CN1C(=O)/C(=N\Nc2ccc(S(N)(=O)=O)cc2)c2cc(Br)ccc21,inhibition,[16],Dose-dependent effect
same,inhibition of growth at 10 µM,[17],47%
same,inhibition of growth at 10 µM,[1],21%
same,inhibition of growth at 10 µM,[18],17%
same,inhibition of growth at 10 µM,[19],23%
same,inhibition of growth at 10 µM,[2],29%
same,inhibition of growth at 10 µM,[20],42%
same,inhibition of growth at 10 µM,[21],36%
same,inhibition of growth at 10 µM,[22],30%
same,inhibition of growth at 10 µM,[4],84%
same,inhibition of growth at 10 µM,[23],14%
same,inhibition of growth at 10 µM,[24],11%
same,inhibition of growth at 10 µM,[7],21%
same,inhibition of growth at 10 µM,[25],14%
same,inhibition of growth at 10 µM,[8],14%
same,inhibition of growth at 10 µM,[11],10%
same,inhibition of growth at 10 µM,[26],15%
same,IC50,[15],> 10 µM
